Measurements taken from PubChem BioAssay AID248 (DTP/NCI, 2004).
Values joined by “and” are separate entries in the source; they are usually repeats but may differ in a detail not shown here. Identical values can stand only once. Toxic doses and inconclusive results are not listed. Cut-off read from the data, not from the text of the source: active = T/C of 150% or more; inactive = T/C below 125%.

Tested on: L1210 leukemia ip in BDF1 mice, survival T/C
Assay: NCI In Vivo Anticancer Drug Screen. Data for tumor model L1210 Leukemia (intraperitoneal) in B6D2F1 (BDF1) mice
Conditions: endpoint: mean survival time, higher = longer survival
Outline: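 Tumor was transplanted into mice, which were then dosed with test compound or vehicle alone. Survival was recorded for each group, and the treated figure was expressed relative to the control figure.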

[1] = dose: 100.0 mg/kg/injection, schedule: Q04DX003 (ip), vehicle: saline
[2] = dose: 100.0 mg/kg/injection, schedule: Q01DX001 (ip), vehicle: carboxymethylcellulose (CMC)
[3] = dose: 100.0 mg/kg/injection, schedule: Q04DX003 (ip), vehicle: carboxymethylcellulose (CMC)
[4] = dose: 200.0 mg/kg/injection, schedule: Q01DX001 (ip), vehicle: carboxymethylcellulose (CMC)
[5] = dose: 200.0 mg/kg/injection, schedule: Q04DX003 (ip), vehicle: carboxymethylcellulose (CMC)
[6] = dose: 100.0 mg/kg/injection, schedule: Q01DX001 (ip), vehicle: saline with Tween-80
[7] = dose: 200.0 mg/kg/injection, schedule: Q01DX001 (ip), vehicle: saline with Tween-80
[8] = dose: 400.0 mg/kg/injection, schedule: Q01DX001 (ip), vehicle: saline with Tween-80
[9] = dose: 50.0 mg/kg/injection, schedule: Q01DX009 (ip), vehicle: saline with Tween-80
[10] = dose: 100.0 mg/kg/injection, schedule: Q01DX009 (ip), vehicle: saline with Tween-80
[11] = dose: 200.0 mg/kg/injection, schedule: Q01DX009 (ip), vehicle: saline with Tween-80
[12] = dose: 100.0 mg/kg/injection, schedule: Q01DX001 (ip), vehicle: Klucel (hydroxypropylcellulose) (HPC)
[13] = dose: 100.0 mg/kg/injection, schedule: Q04DX003 (ip), vehicle: Klucel (hydroxypropylcellulose) (HPC)
[14] = dose: 200.0 mg/kg/injection, schedule: Q01DX001 (ip), vehicle: Klucel (hydroxypropylcellulose) (HPC)
[15] = dose: 200.0 mg/kg/injection, schedule: Q04DX003 (ip), vehicle: Klucel (hydroxypropylcellulose) (HPC)
[16] = dose: 400.0 mg/kg/injection, schedule: Q01DX001 (ip), vehicle: Klucel (hydroxypropylcellulose) (HPC)
[17] = dose: 400.0 mg/kg/injection, schedule: Q04DX003 (ip), vehicle: Klucel (hydroxypropylcellulose) (HPC)
[18] = dose: 400.0 mg/kg/injection, schedule: Q01DX009 (ip), vehicle: saline with Tween-80

Measured: T/C

ClC1=C(Cl)C2(Cl)C3(Cl)C(Cl)=C(Cl)C(Cl)(C34OCCO4)C2(Cl)C12OCCO2 (stereo unspecified)
inactive: dose: 50.0 mg/kg/injection, schedule: Q01DX001 (ip), vehicle: saline 107 % of control | dose: 100.0 mg/kg/injection, schedule: Q01DX001 (ip), vehicle: saline 105 % of control | dose: 100.0 mg/kg/injection, schedule: Q01DX009 (ip), vehicle: saline 90 % of control | [1] 98 % of control | dose: 200.0 mg/kg/injection, schedule: Q01DX001 (ip), vehicle: saline 94 % of control | dose: 200.0 mg/kg/injection, schedule: Q01DX009 (ip), vehicle: saline 93 % of control | dose: 200.0 mg/kg/injection, schedule: Q04DX003 (ip), vehicle: saline 97 % of control | dose: 400.0 mg/kg/injection, schedule: Q01DX001 (ip), vehicle: saline 100 % of control | dose: 400.0 mg/kg/injection, schedule: Q01DX009 (ip), vehicle: saline 92 % of control | dose: 400.0 mg/kg/injection, schedule: Q04DX003 (ip), vehicle: saline 103 % of control

CC(=O)Nc1ccc(C(=O)O)cc1[N+](=O)[O-]
inactive: [2] 99 % of control | dose: 100.0 mg/kg/injection, schedule: Q01DX009 (ip), vehicle: carboxymethylcellulose (CMC) 95 % of control and 105 % of control | dose: 100.0 mg/kg/injection, schedule: Q04DX002 (ip), vehicle: Klucel (hydroxypropylcellulose) (HPC) 95 % of control | dose: 100.0 mg/kg/injection, schedule: Q04DX002 (ip), vehicle: carboxymethylcellulose (CMC) 106 % of control and 90 % of control | [3] 97 % of control | [4] 97 % of control | dose: 200.0 mg/kg/injection, schedule: Q01DX009 (ip), vehicle: carboxymethylcellulose (CMC) 98 % of control and 107 % of control | dose: 200.0 mg/kg/injection, schedule: Q04DX002 (ip), vehicle: Klucel (hydroxypropylcellulose) (HPC) 98 % of control | dose: 200.0 mg/kg/injection, schedule: Q04DX002 (ip), vehicle: carboxymethylcellulose (CMC) 93 % of control and 101 % of control | [5] 105 % of control | dose: 400.0 mg/kg/injection, schedule: Q01DX009 (ip), vehicle: carboxymethylcellulose (CMC) 93 % of control and 91 % of control | dose: 400.0 mg/kg/injection, schedule: Q04DX002 (ip), vehicle: Klucel (hydroxypropylcellulose) (HPC) 98 % of control | dose: 400.0 mg/kg/injection, schedule: Q04DX002 (ip), vehicle: carboxymethylcellulose (CMC) 93 % of control and 90 % of control | dose: 400.0 mg/kg/injection, schedule: Q04DX003 (ip), vehicle: carboxymethylcellulose (CMC) 91 % of control

O=C(Nc1ccc(Cl)cc1)c1cc(Cl)cc(Cl)c1Br
inactive: [2] 95 % of control | [4] 93 % of control | dose: 400.0 mg/kg/injection, schedule: Q01DX001 (ip), vehicle: carboxymethylcellulose (CMC) 91 % of control

Cc1ccc(S(=O)(=O)OC2CCC(=O)C3CC4(CCC23)OCCO4)cc1 (stereo unspecified)
inactive: [6] 91 % of control | [7] 87 % of control | [8] 95 % of control

CC1CC(=O)c2c(cc3c(-c4c(O)cc(O)c5c(O)c6c(cc45)OC(C)CC6=O)c(O)cc(O)c3c2O)O1 (stereo unspecified)
inactive: [3] 103 % of control | [5] 92 % of control

COc1cc(/C=N\NC(=O)CC#N)cc(OC)c1OC
inactive: [9] 87 % of control | [10] 87 % of control | [11] 94 % of control

CC(=O)C(C(=O)c1ccccc1)C(c1ccccc1)c1ccccc1 (stereo unspecified)
inactive: [12] 93 % of control | [13] 92 % of control | [14] 90 % of control | [15] 96 % of control | [16] 92 % of control | [17] 94 % of control

CN(C)/C=C1\NC(=S)NC1=O
inactive: [10] 95 % of control | [11] 95 % of control | [18] 91 % of control

O=C(NO)Nc1ccc([N+](=O)[O-])cc1
inactive: [6] 97 % of control | [10] 93 % of control | [7] 90 % of control | [11] 89 % of control | [8] 99 % of control | [18] 98 % of control

CCCCCCCCCCCCCCCCCCSc1ccc2ccccc2c1
inactive: [13] 105 % of control | [15] 94 % of control | [17] 91 % of control

COc1ccc(-c2nnc(Cl)o2)cc1
inactive: [1] 94 % of control

NC(=O)N/N=C/C1CCC=CO1 (stereo unspecified)
inactive: dose: 100.0 mg/kg/injection, schedule: Q01DX009 (ip), vehicle: Klucel (hydroxypropylcellulose) (HPC) 94 % of control | dose: 200.0 mg/kg/injection, schedule: Q01DX009 (ip), vehicle: Klucel (hydroxypropylcellulose) (HPC) 102 % of control | dose: 400.0 mg/kg/injection, schedule: Q01DX009 (ip), vehicle: Klucel (hydroxypropylcellulose) (HPC) 103 % of control

COC1OC2COC(c3ccccc3)OC(OC)(C2)C1NC(C)=O (stereo unspecified)
inactive: [12] 102 % of control | [14] 101 % of control | [16] 98 % of control

CCO/C=C1\SC(=S)N(c2ccc(C(=O)O)cc2)C1=O
inactive: dose: 25.0 mg/kg/injection, schedule: Q01DX009 (ip), vehicle: saline with Tween-80 108 % of control | [9] 100 % of control | dose: 100.0 mg/kg/injection, schedule: Q01DX009 (ip), vehicle: saline sonified 97 % of control | dose: 100.0 mg/kg/injection, schedule: Q04DX003 (ip), vehicle: saline sonified 99 % of control | dose: 200.0 mg/kg/injection, schedule: Q04DX003 (ip), vehicle: saline sonified 102 % of control | dose: 400.0 mg/kg/injection, schedule: Q04DX003 (ip), vehicle: saline sonified 108 % of control

COc1ccc2c(c1)N(CCCN(C)C)c1ccccc1S2
inactive: dose: 4.68 mg/kg/injection, schedule: Q01DX009 (ip), vehicle: saline 118 % of control | dose: 9.37 mg/kg/injection, schedule: Q01DX009 (ip), vehicle: saline 115 % of control | dose: 18.75 mg/kg/injection, schedule: Q01DX009 (ip), vehicle: saline 115 % of control | dose: 18.75 mg/kg/injection, schedule: Q04DX003 (ip), vehicle: saline 104 % of control | dose: 37.5 mg/kg/injection, schedule: Q01DX009 (ip), vehicle: saline 118 % of control | dose: 37.5 mg/kg/injection, schedule: Q04DX003 (ip), vehicle: saline 114 % of control | dose: 75.0 mg/kg/injection, schedule: Q01DX009 (ip), vehicle: saline 95 % of control | dose: 75.0 mg/kg/injection, schedule: Q04DX003 (ip), vehicle: saline 121 % of control

CCCCCCC#CC(=O)OCCCCC
inactive: dose: 100.0 mg/kg/injection, schedule: Q04DX002 (ip), vehicle: saline with Tween-80 96 % of control | dose: 200.0 mg/kg/injection, schedule: Q04DX002 (ip), vehicle: saline with Tween-80 100 % of control | dose: 400.0 mg/kg/injection, schedule: Q04DX002 (ip), vehicle: saline with Tween-80 96 % of control

C/C=C(/C)C(=O)O[C@H]1CCN2CC=C(COC(=O)[C@@](O)([C@H](C)OC)C(C)(C)O)[C@H]12
inactive: dose: 5.0 mg/kg/injection, schedule: Q01DX001 (ip), vehicle: other 100 % of control | dose: 7.5 mg/kg/injection, schedule: Q04DX003 (ip), vehicle: Klucel (hydroxypropylcellulose) (HPC) 97 % of control | dose: 10.0 mg/kg/injection, schedule: Q01DX001 (ip), vehicle: other 105 % of control | dose: 15.0 mg/kg/injection, schedule: Q04DX003 (ip), vehicle: Klucel (hydroxypropylcellulose) (HPC) 103 % of control | dose: 20.0 mg/kg/injection, schedule: Q01DX001 (ip), vehicle: other 100 % of control | dose: 30.0 mg/kg/injection, schedule: Q04DX003 (ip), vehicle: Klucel (hydroxypropylcellulose) (HPC) 103 % of control | dose: 40.0 mg/kg/injection, schedule: Q01DX001 (ip), vehicle: other 102 % of control | dose: 60.0 mg/kg/injection, schedule: Q04DX003 (ip), vehicle: Klucel (hydroxypropylcellulose) (HPC) 97 % of control | dose: 80.0 mg/kg/injection, schedule: Q01DX001 (ip), vehicle: other 103 % of control
